Source: patent US10118902B2 (Sanford Burnham Prebys Medical Discovery Institute, priority 2014, dated 2018)

biological target: neurotensin receptor 1 (NTR1) (Homo sapiens (Human), UniProt P30989); experiment: NTR1 dose response, high-content imaging beta-arrestin-GFP assay in NTR1-U2OS cells; format: cell-based; conditions: read-out: EC50
Source text: The cell lines utilized in the high-content imaging assays, which include the NTR1-, NTR2-, and GPR35-U2OS osteosarcomas, were obtained from the laboratory of Dr. Lawrence Barak at the Duke University Medical Center. The media used in the culture of the cell lines, as well as the assays themselves, consisted of Minimum Essential Medium (15-010-CM) and L-glutamine (25-005-CL) from Cellgro/Mediatech (Manassas, Va.), fetal bovine serum (SH30396.03) from Hyclone (Logan, Utah), penicillin-streptomycin solution (PS-20) from Omega Scientific in Tarzana, Calif., G418 (ant-gn-1) from Invivogen (San Diego, Calif.), and zeocin (R250-01) from Invitrogen (Carlsbad, Calif.). Cell lines were cultured in T225 tissue culture flasks (431082) supplied by Corning (Corning, N.Y.). Additional reagents employed include Dulbecco's Phosphate-Buffered Saline (DPBS) (21-031CV) from Cellgro/Mediatech, Trypsin-EDTA 0.05% (25300) from Invitrogen, paraformaldehyde (30528954) from Acros Organics (Geel, Belgium), Hoechst 33342 (H3570) from Invitrogen. The high-content assays were run in 1536-well plates (29326) supplied by Aurora Biotechnology (Poway, Calif.) and utilized aluminum plate seals (T592100) from E&K Scientific (Santa Clara, Calif.). […]
The high-content imaging based NTR1 primary screen in 1536-well format was utilized to assay the MLSMR library of chemical entities in the following manner. On day one, 4 uL of a cell suspension containing 350,000 NTR1-U2OS cells per mL is added to each well of a 1536-well assay plate. Cells are plated in MEM medium containing 2.5% Fetal Bovine Serum, 1% Penicillin/Streptomycin solution, 1% L-Glutamine, 400 ug/mL G418, and 200 ug/mL Zeocin. The assay plates are then incubated overnight at 37° C., under 5% CO2. Following the overnight incubation, a volume of 60 nL of the compounds at 2 mM in DMSO (final 20 μM, 1% DMSO) was transferred to columns 5-48 of the assay plates using a LabCyte Echo Liquid Handler. Next, 60 nL of DMSO were dispensed to columns 1-4, which served as the positive and neutral control wells. […] The assay plates were centrifuged on an Eppendorf 5810 centrifuge at 1000 rpm for 1 min to ensure even liquid levels in the wells of the assay plates. The assay plates were then returned to the incubator for 1 hour. Following the hour-long incubation at 37° C., the cells in each well were fixed with 4 uL of 6% paraformaldehyde added with a Multidrop Combi. The assay plates were centrifuged as before and incubated at room temperature for 1 hour. On the Kalypsys, plates were then aspirated down to 2.5 uL per well and washed twice with 11 uL per well of DPBS, followed by a final aspiration to 2.5 uL per well. On the Combi dispenser, 5 uL of 5 ug/mL Hoechst 33342 diluted in DPBS was added to each well of assay plates. The plates were again centrifuged as previously described, sealed, and incubated for at least 1 hour prior to being loaded on a PerkinElmer Opera QEHS.
Image acquisition was performed with a 45 plate capacity loader/stacker and the following settings: 40×0.6 NA air objective, acquisition camera set to 2-by-2 binning for an image size of 688 by 512 pixels, beta-arrestin-GFP acquired using 488 nm laser excitation and 540/75 nm emission filters, DAPI (nuclei) using 365 nm Xenon lamp excitation and 450/50 nm emission filters, 3 fields per well. Image analysis was performed using the Acapella Spot Detection Algorithm. For analysis settings and the metrics employed in the data analyses, please refer to supplemental information.
Compounds that were successfully confirmed in quadruplicate at 20 uM were then run in dose response in the primary assay. As with the single concentration hit confirmation, the assay was performed in an identical manner as the primary screen with the following modifications. […]

neurotensin receptor 1 (NTR1), sequence (P30989 whole entry, species assumed): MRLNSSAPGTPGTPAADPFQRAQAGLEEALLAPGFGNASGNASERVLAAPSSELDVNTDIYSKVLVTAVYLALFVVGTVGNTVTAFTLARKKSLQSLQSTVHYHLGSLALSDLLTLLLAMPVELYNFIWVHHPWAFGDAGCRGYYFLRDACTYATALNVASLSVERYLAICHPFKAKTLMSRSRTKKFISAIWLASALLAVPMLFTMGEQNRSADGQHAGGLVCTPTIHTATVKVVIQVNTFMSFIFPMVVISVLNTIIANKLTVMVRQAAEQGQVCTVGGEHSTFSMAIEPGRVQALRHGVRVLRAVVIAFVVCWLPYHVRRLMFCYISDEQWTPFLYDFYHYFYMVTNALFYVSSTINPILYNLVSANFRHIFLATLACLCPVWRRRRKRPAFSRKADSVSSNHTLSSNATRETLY

Row | SMILES | EC50 [µM]
1 | CN(C)c1ccc2nc(C3CC3)nc(N3CCN(c4ccccc4N4CCC4)CC3)c2c1 [Example 1, {4-[4-(2-azetidin-1-yl-phenyl)-piperazin-1-yl]-2-cyclopropyl-quinazolin-6-yl}-dimethyl-amine] | 0.5 to 2
2 | CCN(C)c1ccc2nc(C3CC3)nc(N3CCN(c4ccccc4N4CCC4)CC3)c2c1 [Example 2, {4-[4-(2-azetidin-1-yl-phenyl)-piperazin-1-yl]-2-cyclopropyl-quinazolin-6-yl}-ethyl-methyl-amine] | 0.5 to 2
3 | CN(C)c1ccc2nc(C3CC3)nc(N3CCC(c4ccccc4N4CCC4)CC3)c2c1 [Example 3] | > 10
4 | CCN(C)c1ccc2nc(C3CC3)nc(N3CCC(c4ccccc4N4CCC4)CC3)c2c1 [Example 4, {4-[4-(2-azetidin-1-yl-phenyl)-piperidin-1-yl]-2-cyclopropyl-quinazolin-6-yl}-ethyl-methyl-amine] | > 10
5 | CN(C)CCN(C)c1ccc2nc(C3CC3)nc(N3CCC(c4ccccc4N4CCC4)CC3)c2c1 [Example 5, N-{4-[4-(2-azetidin-1-yl-phenyl)-piperidin-1-yl]-2-cyclopropyl-quinazolin-6-yl}-N,N′,N′-trimethyl-ethane-1,2-diamine] | 2 to 10
6 | CN(CCO)c1ccc2nc(C3CC3)nc(N3CCC(c4ccccc4N4CCC4)CC3)c2c1 [Example 6, 2-({4-[4-(2-azetidin-1-yl-phenyl)-piperidin-1-yl]-2-cyclopropyl-quinazolin-6-yl}-methyl-amino)-ethanol] | 0.5 to 2
7 | COCCN(C)c1ccc2nc(C3CC3)nc(N3CCC(c4ccccc4N4CCC4)CC3)c2c1 [Example 7, {4-[4-(2-azetidin-1-yl-phenyl)-piperidin-1-yl]-2-cyclopropyl-quinazolin-6-yl}-(2-methoxy-ethyl)-methyl-amine] | 2 to 10
8 | CN(CCN1CCOCC1)c1ccc2nc(C3CC3)nc(N3CCC(c4ccccc4N4CCC4)CC3)c2c1 [Example 8, {4-[4-(2-azetidin-1-yl-phenyl)-piperidin-1-yl]-2-cyclopropyl-quinazolin-6-yl}-methyl-(2-morpholin-4-yl-ethyl)-amine] | 0.5 to 2
9 | CN(CCN1CCCC1)c1ccc2nc(C3CC3)nc(N3CCC(c4ccccc4N4CCC4)CC3)c2c1 [Example 9, {4-[4-(2-azetidin-1-yl-phenyl)-piperidin-1-yl]-2-cyclopropyl-quinazolin-6-yl}-methyl-(2-pyrrolidin-1-yl-ethyl)-amine] | > 10
10 | CN(C)c1ccccc1C1CCN(c2nc(C3CC3)nc3ccc(N(C)CCO)cc23)CC1 [Example 10, 2-({2-cyclopropyl-4-[4-(2-dimethylamino-phenyl)-piperidin-1-yl]-quinazolin-6-yl}-methyl-amino)-ethanol] | 2 to 10
11 | COCCN(C)c1ccc2nc(C3CC3)nc(N3CCC(c4ccccc4N(C)C)CC3)c2c1 [Example 11, {2-cyclopropyl-4-[4-(2-dimethylamino-phenyl)-piperidin-1-yl]-quinazolin-6-yl}-(2-methoxy-ethyl)-methyl-amine] | 2 to 10

The next lines start with the values.

Row | EC50 [µM] | SMILES
12 | 2 to 10 | COc1ccccc1C1CCN(c2nc(C3CC3)nc3ccc(N4CC[C@@H](N(C)C)C4)cc23)CC1 (stereo in doubt) [Example 91, (1-{2-cyclopropyl-4-[4-(2-methoxy-phenyl)-piperidin-1-yl]-quinazolin-6-yl}-pyrrolidin-3-yl)-dimethyl-amine]
13 | > 10 | COc1ccccc1N[C@@H]1CCN(c2nc(C3CC3)nc3ccc(N(C)CCO)cc23)C1 (stereo in doubt) [Example 153, 2-({2-cyclopropyl-4-[3-(2-methoxy-phenylamino)-pyrrolidin-1-yl]-quinazolin-6-yl}-methyl-amino)-ethanol]
14 | 0.5 to 2 | COc1ccccc1C1CCN(c2nc(C3(F)CC3)nc3c(Cl)cc(N4CC[C@@H](O)C4)cc23)CC1 (stereo in doubt) [Example 202, 1-{8-Chloro-2-(1-fluoro-cyclopropyl)-4-[4-(2-methoxy-phenyl)-piperidin-1-yl]-quinazolin-6-yl}-pyrrolidin-3-ol]
15 | 2 to 10 | COc1ccccc1C1CCN(c2nc(C3(F)CC3)nc3c(Cl)cc(N4CC[C@H](O)C4)cc23)CC1 (stereo in doubt) [Example 203, 1-{8-Chloro-2-(1-fluoro-cyclopropyl)-4-[4-(2-methoxy-phenyl)-piperidin-1-yl]-quinazolin-6-yl}-pyrrolidin-3-ol]
16 | 2 to 10 | CN(C)c1ccccc1C1CCN(c2nc(C3CC3)nc3ccc(N(C)CCN4CCOCC4)cc23)CC1 [Example 12, {2-Cyclopropyl-4-[4-(2-dimethylamino-phenyl)-piperidin-1-yl]-quinazolin-6-yl}-methyl-(2-morpholin-4-yl-ethyl)-amine]
17 | 2 to 10 | CN(C)c1ccccc1C1CCN(c2nc(C3CC3)nc3ccc(N(C)CCN4CCCC4)cc23)CC1 [Example 13, {2-cyclopropyl-4-[4-(2-dimethylamino-phenyl)-piperidin-1-yl]-quinazolin-6-yl}-methyl-(2-pyrrolidin-1-yl-ethyl)-amine]
18 | 2 to 10 | CN(C)CCN(C)c1ccc2nc(C3CC3)nc(N3CCC(c4ccccc4N(C)C)CC3)c2c1 [Example 14, N-{2-cyclopropyl-4-[4-(2-dimethylamino-phenyl)-piperidin-1-yl]-quinazolin-6-yl}-N,N′,N′-trimethyl-ethane-1,2-diamine]
19 | < 0.5 | COc1ccccc1C1CCN(c2nc(C3(F)CC3)nc3ccc(N(C)CCO)cc23)CC1 [Example 15, 2-({2-(1-Fluoro-cyclopropyl)-4-[4-(2-methoxy-phenyl)-piperidin-1-yl]-quinazolin-6-yl}-methyl-amino)-ethanol]
20 | 0.5 to 2 | COCCN(C)c1ccc2nc(C3(F)CC3)nc(N3CCC(c4ccccc4OC)CC3)c2c1 [Example 16, {2-(1-fluoro-cyclopropyl)-4-[4-(2-methoxy-phenyl)-piperidin-1-yl]-quinazolin-6-yl}-(2-methoxy-ethyl)-methyl-amine]
21 | 0.5 to 2 | COc1ccccc1C1CCN(c2nc(C3(F)CC3)nc3ccc(N(C)CCN4CCOCC4)cc23)CC1 [Example 17, {2-(1-fluoro-cyclopropyl)-4-[4-(2-methoxy-phenyl)-piperidin-1-yl]-quinazolin-6-yl}-methyl-(2-morpholin-4-yl-ethyl)-amine]
22 | 0.5 to 2 | COc1ccccc1C1CCN(c2nc(C3(F)CC3)nc3ccc(N(C)C)cc23)CC1 [Example 18, {2-(1-fluoro-cyclopropyl)-4-[4-(2-methoxy-phenyl)-piperidin-1-yl]-quinazolin-6-yl}-dimethyl-amine]
23 | > 10 | COc1ccccc1C1CCN(c2nc(C3(N(C)C)CC3)nc3ccc(N(C)C)cc23)CC1 [Example 19, {2-(1-dimethylamino-cyclopropyl)-4-[4-(2-methoxy-phenyl)-piperidin-1-yl]-quinazolin-6-yl}-dimethyl-amine]
24 | 0.5 to 2 | CCCN(C)c1ccc2nc(C3(F)CC3)nc(N3CCC(c4ccccc4OC)CC3)c2c1 [Example 20, {2-(1-fluoro-cyclopropyl)-4-[4-(2-methoxy-phenyl)-piperidin-1-yl]-quinazolin-6-yl}-methyl-propyl-amine]
25 | > 10 | CCCN(C)c1ccc2nc(C3(N(C)CCC)CC3)nc(N3CCC(c4ccccc4OC)CC3)c2c1 [Example 21, {4-[4-(2-methoxy-phenyl)-piperidin-1-yl]-2-[1-(methyl-propyl-amino)-cyclopropyl]-quinazolin-6-yl}-methyl-propyl-amine]
